# Measured values: patent US8691865B2 (AbbVie Inc., priority 2008, dated 2014)
# pIC50: −log10 of the molar value. Where two headings read alike, the source gives them in different places.
# Target: human Cav2.2 (Homo sapiens, UniProt Q00975)
# Assay: Assessment of calcium channel activity using FLIPR (Ca2+ influx in IMR32 cells)
# Format: cell-based
# Conditions: for IC50: read-out: IC50 (μM) or percent inhibition (* indicates 3 minute incubation, otherwise 60 minute), 60 minute pre-incubation with compound, IMR32 cells, 80 mM KCl depolarization
# Procedure, shortened: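 Human neuroblastoma IMR32 cells were seeded at 1−1.2×10^5 cells/well and cultured 48 h at 37 °C before FLIPR calcium influx measurement. Percent inhibition at each concentration was calculated against the no-inhibitor signal, and IC50 came from sigmoidal dose-response fits.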
# Sequence of human Cav2.2 (Q00975 whole entry): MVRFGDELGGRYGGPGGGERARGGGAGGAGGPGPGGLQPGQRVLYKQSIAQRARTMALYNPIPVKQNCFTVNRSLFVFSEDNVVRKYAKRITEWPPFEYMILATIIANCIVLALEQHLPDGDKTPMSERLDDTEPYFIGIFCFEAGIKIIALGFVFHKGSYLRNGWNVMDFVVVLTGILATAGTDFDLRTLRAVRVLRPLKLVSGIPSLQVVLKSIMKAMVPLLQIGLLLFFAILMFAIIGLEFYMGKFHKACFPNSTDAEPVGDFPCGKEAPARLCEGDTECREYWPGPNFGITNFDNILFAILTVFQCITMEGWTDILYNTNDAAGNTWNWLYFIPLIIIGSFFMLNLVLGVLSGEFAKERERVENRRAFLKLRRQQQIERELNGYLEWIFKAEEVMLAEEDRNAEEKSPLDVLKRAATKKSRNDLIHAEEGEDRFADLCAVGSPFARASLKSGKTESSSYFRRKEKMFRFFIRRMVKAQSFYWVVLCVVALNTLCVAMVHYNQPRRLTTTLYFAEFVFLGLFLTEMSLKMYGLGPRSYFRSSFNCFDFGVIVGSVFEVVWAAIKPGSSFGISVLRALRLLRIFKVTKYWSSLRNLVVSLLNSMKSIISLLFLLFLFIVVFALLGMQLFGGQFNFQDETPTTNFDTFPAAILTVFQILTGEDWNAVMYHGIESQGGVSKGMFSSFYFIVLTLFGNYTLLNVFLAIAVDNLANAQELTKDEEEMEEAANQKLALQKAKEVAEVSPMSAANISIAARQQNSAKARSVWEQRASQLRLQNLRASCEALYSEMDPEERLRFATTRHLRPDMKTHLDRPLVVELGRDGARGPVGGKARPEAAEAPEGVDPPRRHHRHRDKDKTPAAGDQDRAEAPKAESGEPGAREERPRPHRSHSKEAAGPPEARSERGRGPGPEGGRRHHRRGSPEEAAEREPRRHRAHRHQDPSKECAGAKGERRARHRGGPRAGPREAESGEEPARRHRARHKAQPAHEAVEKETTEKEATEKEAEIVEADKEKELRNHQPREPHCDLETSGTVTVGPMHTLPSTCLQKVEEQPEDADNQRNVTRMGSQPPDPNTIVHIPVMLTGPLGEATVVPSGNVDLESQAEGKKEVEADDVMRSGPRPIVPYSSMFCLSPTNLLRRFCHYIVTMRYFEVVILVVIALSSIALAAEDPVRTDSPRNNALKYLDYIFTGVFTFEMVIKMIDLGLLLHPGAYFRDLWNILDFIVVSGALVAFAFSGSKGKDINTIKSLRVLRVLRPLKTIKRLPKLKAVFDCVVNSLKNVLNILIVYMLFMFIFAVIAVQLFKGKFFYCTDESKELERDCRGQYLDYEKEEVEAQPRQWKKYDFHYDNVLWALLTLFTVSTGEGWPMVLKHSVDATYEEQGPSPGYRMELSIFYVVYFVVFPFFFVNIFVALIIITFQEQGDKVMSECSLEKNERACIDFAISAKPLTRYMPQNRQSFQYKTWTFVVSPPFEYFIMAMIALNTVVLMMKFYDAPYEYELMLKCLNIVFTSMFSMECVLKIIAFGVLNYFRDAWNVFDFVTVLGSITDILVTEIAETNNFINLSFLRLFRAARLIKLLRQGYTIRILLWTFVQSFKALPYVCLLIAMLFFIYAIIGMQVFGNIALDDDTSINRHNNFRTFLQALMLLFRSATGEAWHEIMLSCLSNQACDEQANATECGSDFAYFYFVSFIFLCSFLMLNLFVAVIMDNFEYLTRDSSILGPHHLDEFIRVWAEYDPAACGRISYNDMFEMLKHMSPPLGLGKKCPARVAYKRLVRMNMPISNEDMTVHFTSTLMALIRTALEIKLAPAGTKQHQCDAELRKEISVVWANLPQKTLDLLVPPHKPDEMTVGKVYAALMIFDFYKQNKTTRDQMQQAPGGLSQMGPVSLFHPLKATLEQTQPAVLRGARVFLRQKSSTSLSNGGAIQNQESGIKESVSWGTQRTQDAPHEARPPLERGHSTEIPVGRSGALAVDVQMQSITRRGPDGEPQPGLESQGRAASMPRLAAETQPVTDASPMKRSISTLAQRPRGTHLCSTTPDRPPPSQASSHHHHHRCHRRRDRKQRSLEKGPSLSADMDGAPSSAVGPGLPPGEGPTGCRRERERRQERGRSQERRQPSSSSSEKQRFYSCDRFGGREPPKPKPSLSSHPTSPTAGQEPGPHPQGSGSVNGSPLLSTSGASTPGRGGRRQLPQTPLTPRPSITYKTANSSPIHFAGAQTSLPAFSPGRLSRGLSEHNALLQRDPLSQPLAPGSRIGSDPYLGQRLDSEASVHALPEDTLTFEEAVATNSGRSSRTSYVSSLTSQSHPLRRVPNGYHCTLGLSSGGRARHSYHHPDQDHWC
# Sequence of human Cav2.2 (P54289 25-956 partner limits assumed): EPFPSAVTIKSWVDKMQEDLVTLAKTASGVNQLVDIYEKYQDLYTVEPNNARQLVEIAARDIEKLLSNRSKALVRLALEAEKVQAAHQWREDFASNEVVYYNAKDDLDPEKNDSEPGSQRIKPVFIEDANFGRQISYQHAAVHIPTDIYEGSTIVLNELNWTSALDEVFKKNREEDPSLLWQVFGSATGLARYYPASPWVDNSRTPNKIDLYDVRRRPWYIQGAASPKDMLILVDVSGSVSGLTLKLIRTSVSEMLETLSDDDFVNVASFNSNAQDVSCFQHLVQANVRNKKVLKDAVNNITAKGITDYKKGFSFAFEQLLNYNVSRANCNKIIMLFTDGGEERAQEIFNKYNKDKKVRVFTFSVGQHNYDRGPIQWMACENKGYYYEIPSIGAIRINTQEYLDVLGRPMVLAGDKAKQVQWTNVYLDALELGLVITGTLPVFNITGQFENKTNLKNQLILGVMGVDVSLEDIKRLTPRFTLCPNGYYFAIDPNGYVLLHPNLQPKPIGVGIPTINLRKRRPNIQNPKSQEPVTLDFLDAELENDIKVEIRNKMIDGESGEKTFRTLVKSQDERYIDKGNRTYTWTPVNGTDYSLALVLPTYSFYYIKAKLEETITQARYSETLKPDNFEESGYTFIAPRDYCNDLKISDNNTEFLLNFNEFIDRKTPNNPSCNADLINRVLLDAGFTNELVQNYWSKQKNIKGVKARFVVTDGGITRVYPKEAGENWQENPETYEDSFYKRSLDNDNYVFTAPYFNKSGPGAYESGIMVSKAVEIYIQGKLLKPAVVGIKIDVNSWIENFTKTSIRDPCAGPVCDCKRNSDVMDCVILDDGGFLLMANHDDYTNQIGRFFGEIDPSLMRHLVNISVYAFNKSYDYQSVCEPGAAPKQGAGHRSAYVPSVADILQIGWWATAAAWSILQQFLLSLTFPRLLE
# Sequence of human Cav2.2 (P54289 957-1103 partner limits assumed): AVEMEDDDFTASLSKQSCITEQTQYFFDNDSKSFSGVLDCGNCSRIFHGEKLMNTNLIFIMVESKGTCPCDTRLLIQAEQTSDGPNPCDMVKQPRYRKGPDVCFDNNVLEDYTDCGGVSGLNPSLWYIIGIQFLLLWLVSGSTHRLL
# Sequence of human Cav2.2 (P54284 whole entry partner): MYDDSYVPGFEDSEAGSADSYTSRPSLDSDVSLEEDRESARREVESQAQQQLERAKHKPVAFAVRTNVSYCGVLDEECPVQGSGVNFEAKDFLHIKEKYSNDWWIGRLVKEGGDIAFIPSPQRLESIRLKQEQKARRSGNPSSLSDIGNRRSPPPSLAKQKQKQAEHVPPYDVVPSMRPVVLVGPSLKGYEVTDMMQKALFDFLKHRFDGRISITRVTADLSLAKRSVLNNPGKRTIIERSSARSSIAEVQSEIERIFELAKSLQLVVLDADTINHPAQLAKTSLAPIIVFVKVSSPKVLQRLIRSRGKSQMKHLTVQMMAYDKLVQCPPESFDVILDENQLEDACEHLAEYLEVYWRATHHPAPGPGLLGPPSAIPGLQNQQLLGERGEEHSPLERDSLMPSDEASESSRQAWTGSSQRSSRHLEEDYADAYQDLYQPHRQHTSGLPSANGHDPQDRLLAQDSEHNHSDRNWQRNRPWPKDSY
IC50,pIC50,Compound
2.04 µM,–,"Cc1ccccc1CN1C[C@H]2CC[C@H](NC(=O)C(c3ccccc3)C(C)C)[C@H]2C1 (stereo partly drawn) [Example 92, 3-methyl-N-[(3aR,4S,6aS)-2-(2-methylbenzyl)octahydrocyclopenta[c]pyrrol-4-yl]-2-phenylbutanamide]"
–,< 4.52,"CC(C)CC(=O)N[C@H]1CC[C@@H]2CN(Cc3ccccc3)C[C@@H]21 [Example 230, N-[(3aR,4S,6aS)-2-benzyloctahydrocyclopenta[c]pyrrol-4-yl]-3-methylbutanamide]"
–,5.69,"CC(C)[C@@H](C(=O)N[C@@H]1CC[C@H]2CN(Cc3cccc(C(F)(F)F)c3)C[C@H]21)N(C)C(=O)OC(C)(C)C [Example 316, tert-butyl methyl((S)-3-methyl-1-oxo-1-((3aS,4R,6aR)-2-(3-(trifluoromethyl)benzyl)octahydrocyclopenta[c]pyrrol-4-ylamino)butan-2-yl)carbamate]"
–,6.06,"FC(F)(F)c1cccc(N2C[C@H]3CC[C@H](NCc4cc5ccncc5s4)[C@H]3C2)n1 [Example 721, (3aR,4S,6aS)-N-(thieno[2,3-c]pyridin-2-ylmethyl)-2-[6-(trifluoromethyl)pyridin-2-yl]octahydrocyclopenta[c]pyrrol-4-amine]"
–,5.84,"CC(C)C(C(=O)N[C@@H]1CC[C@@H]2CN(Cc3ccccc3)C[C@@H]21)c1ccccc1 (relative stereo) [Example 5, N-[(3aR*,4R*,6aS*)-2-benzyloctahydrocyclopenta[c]pyrrol-4-yl]-3-methyl-2-phenylbutanamide]"
–,5.85,"CN[C@H](C(=O)N[C@H]1CC[C@@H]2CN(c3cccc(OC(F)(F)F)c3)C[C@@H]21)C(C)C [Example 758, N^2-methyl-N-{(3aR,4S,6aS)-2-[3-(trifluoromethoxy)phenyl]octahydrocyclopenta[c]pyrrol-4-yl}-L-valinamide]"
–,5.59,"O=S(=O)(N[C@H]1CC[C@@H]2CN(c3cccc(C(F)(F)F)n3)C[C@@H]21)c1cccc(F)c1 [Example 702, 3-fluoro-N-{(3aR,4S,6aS)-2-[6-(trifluoromethyl)pyridin-2-yl]octahydrocyclopenta[c]pyrrol-4-yl}benzenesulfonamide]"
–,6.21,"O=C(N[C@H]1CC[C@@H]2CN(c3cccc(C(F)(F)F)n3)C[C@@H]21)c1cc2ccccc2[nH]1 [Example 570, N-{(3aR,4S,6aS)-2-[6-(trifluoromethyl)pyridin-2-yl]octahydrocyclopenta[c]pyrrol-4-yl}-1H-indole-2-carboxamide]"
–,5.68,"CCC(CC)C(=O)N[C@H]1CC[C@H]2CN(Cc3cccc(C(F)(F)F)c3)C[C@H]21 (relative stereo) [Example 125, 2-ethyl-N-{(3aS*,4S*,6aR*)-2-[3-(trifluoromethyl)benzyl]octahydrocyclopenta[c]pyrrol-4-yl}butanamide]"
–,5.67,"CN(C)[C@@H](CC1CC1)C(=O)N[C@H]1CC[C@@H]2CN(c3ccc(OC(F)(F)F)cc3)C[C@@H]21 [Example 777, 3-cyclopropyl-N^2,N^2-dimethyl-N-{(3aR,4S,6aS)-2-[4-(trifluoromethoxy)phenyl]octahydrocyclopenta[c]pyrrol-4-yl}-L-alaninamide]"
–,< 4.52,"CCC[C@H](NC)C(=O)N[C@H]1CC[C@@H]2CN(S(=O)(=O)c3cccnc3)C[C@@H]21 [Example 535, N^2-methyl-N^1-[(3aR,4S,6aS)-2-(pyridin-3-ylsulfonyl)octahydrocyclopenta[c]pyrrol-4-yl]-L-norvalinamide]"
–,5.38,"Cc1nc(CN[C@H]2CC[C@@H]3CN(c4cccc(C(F)(F)F)n4)C[C@@H]32)c[nH]1 [Example 676, (3aR,4S,6aS)-N-[(2-methyl-1H-imidazol-4-yl)methyl]-2-[6-(trifluoromethyl)pyridin-2-yl]octahydrocyclopenta[c]pyrrol-4-amine]"
3.18 µM,–,"FC(F)(F)c1cccc(CN2C[C@@H]3CC[C@H](N(C4CC4)C4CC4)[C@@H]3C2)c1 (relative stereo) [Example 196, (3aS*,4S*,6aR*)-N,N-dicyclopropyl-2-[3-(trifluoromethyl)benzyl]octahydrocyclopenta[c]pyrrol-4-amine]"

# Further lines, the compound ahead of its results:
Compound,IC50,pIC50
"CC(C)C[C@@H](C(=O)N[C@@H]1CC[C@H]2CN(S(=O)(=O)C3CC3)C[C@H]21)N1CCCC1 [Example 347, (2S)-N-[(3aS,4R,6aR)-2-(cyclopropylsulfonyl)octahydrocyclopenta[c]pyrrol-4-yl]-4-methyl-2-pyrrolidin-1-ylpentanamide]",–,< 5.28
"O=C(N[C@@H]1CC[C@H]2CN(CCCCCC(c3ccc(F)cc3)c3ccc(F)cc3)C[C@H]21)C(C1CCCCC1)C1CCCCC1 [Example 78, N-{(3aS,4R,6aR)-2-[6,6-bis(4-fluorophenyl)hexyl]octahydrocyclopenta[c]pyrrol-4-yl}-2,2-dicyclohexylacetamide]",–,5.87
"O=S(=O)(N[C@H]1CC[C@H]2CN(CCCCO)C[C@H]21)c1cccc(C(F)(F)F)c1 [Example 195, N-[(3aS,4S,6aR)-2-(4-hydroxybutyl)octahydrocyclopenta[c]pyrrol-4-yl]-3-(trifluoromethyl)benzenesulfonamide]",22.1 µM,–
"O=C(N[C@H]1CC[C@@H]2CN(c3cccc(C(F)(F)F)n3)C[C@@H]21)c1cc(Cl)c[nH]1 [Example 575, 4-chloro-N-{(3aR,4S,6aS)-2-[6-(trifluoromethyl)pyridin-2-yl]octahydrocyclopenta[c]pyrrol-4-yl}-1H-pyrrole-2-carboxamide]",–,6.15
"FC(F)(F)c1cccc(N2C[C@H]3CC[C@H](NCc4cc5cc(Cl)ccc5[nH]4)[C@H]3C2)n1 [Example 665, (3aR,4S,6aS)-N-[(5-chloro-1H-indol-2-yl)methyl]-2-[6-(trifluoromethyl)pyridin-2-yl]octahydrocyclopenta[c]pyrrol-4-amine]",–,5.52
"O=S(=O)(N[C@H]1CC[C@@H]2CN(c3cccc(C(F)(F)F)n3)C[C@@H]21)c1ccc(F)c(Cl)c1 [Example 710, 3-chloro-4-fluoro-N-{(3aR,4S,6aS)-2-[6-(trifluoromethyl)pyridin-2-yl]octahydrocyclopenta[c]pyrrol-4-yl}benzenesulfonamide]",–,5.25
"O=C(N[C@H]1CC[C@@H]2CN(c3ccc(OC(F)(F)F)cc3)C[C@@H]21)[C@@H]1C[C@@H](F)CN1 [Example 631, (4R)-4-fluoro-N-{(3aR,4S,6aS)-2-[4-(trifluoromethoxy)phenyl]octahydrocyclopenta[c]pyrrol-4-yl}-L-prolinamide]",–,< 4.52
"Cc1cccc(CN2C[C@@H]3CC[C@H](NC(=O)C(C4CCCCC4)C4CCCCC4)[C@@H]3C2)c1 [Example 61, 2,2-dicyclohexyl-N-[(3aS,4S,6aR)-2-(3-methylbenzyl)octahydrocyclopenta[c]pyrrol-4-yl]acetamide]",–,6.07
"CC(C)C(C(=O)N[C@H]1CC[C@@H]2CN(Cc3cccc(C(F)(F)F)c3)C[C@@H]21)C(C)C [Example 305, 2-isopropyl-3-methyl-N-{(3aR,4S,6aS)-2-[3-(trifluoromethyl)benzyl]octahydrocyclopenta[c]pyrrol-4-yl}butanamide]",–,5.79
"O=C(N[C@H]1CC[C@@H]2CN(c3cccc(C(F)(F)F)n3)C[C@@H]21)c1cc2occc2[nH]1 [Example 574, N-{(3aR,4S,6aS)-2-[6-(trifluoromethyl)pyridin-2-yl]octahydrocyclopenta[c]pyrrol-4-yl}-4H-furo[3,2-b]pyrrole-5-carboxamide]",–,5.86
"O=C(CCC(c1ccc(F)cc1)c1ccc(F)cc1)N[C@@H]1CC[C@H]2CN(Cc3cccc(C(F)(F)F)c3)C[C@H]21 (relative stereo) [Example 144, 4,4-bis(4-fluorophenyl)-N-{(3aS*,4R*,6aR*)-2-[3-(trifluoromethyl)benzyl]octahydrocyclopenta[c]pyrrol-4-yl}butanamide]",1.04 µM,–
"CC(C)C(C(=O)N[C@H]1CC[C@@H]2CN(Cc3ccc(F)cc3)C[C@@H]21)c1ccccc1 (stereo partly drawn) [Example 89, N-[(3aR,4S,6aS)-2-(4-fluorobenzyl)octahydrocyclopenta[c]pyrrol-4-yl]-3-methyl-2-phenylbutanamide]",2.01 µM,–
"CN[C@@H](CC(C)C)C(=O)N[C@H]1CC[C@@H]2CN(c3ccc(F)c(OC(F)(F)F)c3)C[C@@H]21 [Example 772, N-{(3aR,4S,6aS)-2-[4-fluoro-3-(trifluoromethoxy)phenyl]octahydrocyclopenta[c]pyrrol-4-yl}-N^2-methyl-L-leucinamide]",–,5.97
"CC(C)(C)C[C@H](N)C(=O)N[C@H]1CC[C@@H]2CN(C(=O)[C@@H](N)CC(C)(C)C)C[C@@H]21 [Example 464, 4-methyl-N^1-[(3aR,4S,6aS)-2-(4-methyl-L-leucyl)octahydrocyclopenta[c]pyrrol-4-yl]-L-leucinamide]",–,< 4.52
"CN[C@@H](CC(C)C)C(=O)N[C@H]1CC[C@@H]2CN(c3ccc(OC(F)(F)F)cc3F)C[C@@H]21 [Example 774, N-{(3aR,4S,6aS)-2-[2-fluoro-4-(trifluoromethoxy)phenyl]octahydrocyclopenta[c]pyrrol-4-yl}-N^2-methyl-L-leucinamide]",–,5.94
"O=C(N[C@H]1CC[C@@H]2CN(c3csc(C(F)F)c3)C[C@@H]21)[C@@H]1C[C@@H](F)CN1 [Example 655, (4R)-N-{(3aR,4S,6aS)-2-[5-(difluoromethyl)-3-thienyl]octahydrocyclopenta[c]pyrrol-4-yl}-4-fluoro-L-prolinamide]",–,4.71
"O=C(N[C@H]1CC[C@@H]2CN(c3cccc(C(F)(F)F)n3)C[C@@H]21)[C@@H]1C[C@H](F)CN1 [Example 596, (4S)-4-fluoro-N-{(3aR,4S,6aS)-2-[6-(trifluoromethyl)pyridin-2-yl]octahydrocyclopenta[c]pyrrol-4-yl}-L-prolinamide]",–,5.35
"CCC[C@H](NC)C(=O)N[C@H]1CC[C@@H]2CN(S(=O)(=O)c3ccc(C(F)(F)F)cc3)C[C@@H]21 [Example 405, N^2-methyl-N^1-((3aR,4S,6aS)-2-{[4-(trifluoromethyl)phenyl]sulfonyl}octahydrocyclopenta[c]pyrrol-4-yl)-L-norvalinamide]",3.83 µM,–
